According to PMC6099617, “Synthesis of Antibacterial Nisin–Peptoid Hybrids Using Click Methodology” (Molecules : A Journal of Synthetic Chemistry and Natural …, 2018):
Values after ≈ are worked out from the molar mass of the structure shown. Where two headings read alike, the source gives them in different places. Square brackets hold non-standard residues; d marks the D form. Peptide text beside a SMILES is read from it. N(4-F-Bzl)Gly = O=C(O)CNCc1ccc(F)cc1; Gly(N-2-aminoethyl) = NCCNCC(=O)O; Nspe = C[C@H](NCC(=O)O)c1ccccc1; Nlys = NCCCCNCC(=O)O

How the values were obtained:
[1] = system: S. aureus; details: had shown promising antibacterial activities; strain and reference not given; cited from earlier work
[2] = system: methicillin-resistant Staphylococcus aureus USA 300
[3] = system: epithelial HepG2 cells; experiment: Cytotoxicity assay (alamarBlue cell viability), HepG2; type: cell-based; details: 1 hour with compound 2–100 µM, then 24 hours
Procedure: (§1) Cytotoxicity analyses were performed in 96-well plates (Costar, Fisher Scientific) using alamarBlue® (Invitrogen) for cell viability detection using a modified protocol as previously described.9 The HepG2 or HaCaT cells were grown at 37 °C, 5 % CO2 in DMEM10 high glucose supplemented with heat-inactivated foetal bovine sera (FBS, 10 %; Biosera Ltd) and penicillin/streptomycin (P/S, 1 %). Cells were counted using a Neubauer Improved Haemocytometer. Cells were seeded 1 day prior to treatment in 96 well plates at a concentration of 2 x 10^5 cells mL-1 in 100 µL of medium (2 x 10^4 cells/well). Empty wells were filled with 100 µL PBS. After 24 hours, cells were incubated with the compounds in a dilution series in triplicate from 2–100 µM (5 mM stock solutions in DMSO; untreated cells with DMSO as a negative control) in 50 µL of the media for 1 hour. Afterwards, 40 µL of medium was removed from each well before the addition of 90 µL of the media, followed by incubation for 24 hours at 37 °C, 5 % CO2. Then, 10 µL of alamarBlue® (Invitrogen) was added to each well before a 2 hour incubation prior to assessing cell viability using a fluorescent plate reader (Biotek; λex 560 nm, λem 600 nm).

[4] = system: HaCaT keratinocytes; experiment: Cytotoxicity assay (alamarBlue cell viability), HaCaT; type: cell-based; details: 1 hour with compound 2–100 µM, then 24 hours
Procedure: as §1

[5] = system: methicillin-resistant Staphylococcus aureus USA 300; experiment: microbe, parasite or virus in culture; details: MRSA / USA300, read-out: MIC S. aureus (USA300)

SMILES	MIC against S. aureus (reason for choosing the sequences) [1]	MIC S. aureus (USA300) ([2]; USA 300)	ED50 HepG2 [3]	ED50 HaCaT [4]	MIC [5]	MIC S. aureus (USA300) ([2]; MRSA USA300, CAMHB, overnight incubation 35 °C, visual inspection, duplicate)
C[C@@H](c1ccccc1)N(CC(N)=O)C(=O)CN(C(=O)CN(CCCCN)C(=O)CN(Cc1ccc(F)cc1)C(=O)CN(Cc1ccc(F)cc1)C(=O)CN(CCCCN)C(=O)CN(C(=O)CN(C(=O)CN(CCCCN)C(=O)CN(Cc1ccc(F)cc1)C(=O)CN(Cc1ccc(F)cc1)C(=O)CNCCCCN)[C@@H](C)c1ccccc1)[C@@H](C)c1ccccc1)[C@@H](C)c1ccccc1 [1b, [(NLysNpfbNpfb)(NLysNspeNspe)]2] (H-[Nlys][N(4-F-Bzl)Gly][N(4-F-Bzl)Gly][Nlys][Nspe][Nspe][Nlys][N(4-F-Bzl)Gly][N(4-F-Bzl)Gly][Nlys][Nspe][Nspe]-NH2; N-terminus and C-terminus assumed)	below 2 µM	2 to 4 µM	18 µM	53 µM		
CN[C@H](CC(C)C)C(=O)N[C@H]1C(=O)N[C@@H](CC(N)=O)C(=O)N[C@H]2C(=O)N[C@H]3C(=O)N[C@H](C(=O)N[C@H](C(=O)O)c4cc(O)cc(O)c4-c4cc3ccc4O)[C@H](O)c3ccc(c(Cl)c3)Oc3cc2cc(c3O[C@@H]2O[C@H](CO)[C@@H](O)[C@H](O)[C@H]2O[C@H]2C[C@](C)(N)[C@H](O)[C@H](C)O2)Oc2ccc(cc2Cl)[C@H]1O [compound 7, Vancomycin]					1 µM (≈ 1.45 µg/mL)	
C=C1NC(=O)[C@H]([C@@H](C)CC)NC(=O)[C@H](NC(=O)/C(=C/C)NC(=O)[C@@H](N)[C@@H](C)CC)CSC[C@@H](C(=O)N[C@H]2C(=O)N3CCC[C@H]3C(=O)NCC(=O)N[C@H](C(=O)N[C@@H](CCCCN)C(=O)O)CS[C@H]2C)NC(=O)[C@H](CC(C)C)NC1=O [compound 4, Nisin[1,2,3,4,5,6,7,8,9, 10, 11, 12], reference compound]						> 100 µM
C[C@@H](c1ccccc1)N(CC(N)=O)C(=O)CN(C(=O)CN(CCN)C(=O)CN(C(=O)CN(C(=O)CN(CCN)C(=O)CN(C(=O)CN(C(=O)CN(CCN)C(=O)CN(C(=O)CN(C(=O)CNCCN)[C@@H](C)c1ccccc1)[C@@H](C)c1ccccc1)[C@@H](C)c1ccccc1)[C@@H](C)c1ccccc1)[C@@H](C)c1ccccc1)[C@@H](C)c1ccccc1)[C@@H](C)c1ccccc1 [1a, (NaeNspeNspe)4] (H-[Gly(N-2-aminoethyl)][Nspe][Nspe][Gly(N-2-aminoethyl)][Nspe][Nspe][Gly(N-2-aminoethyl)][Nspe][Nspe][Gly(N-2-aminoethyl)][Nspe][Nspe]-NH2; N-terminus and C-terminus assumed)	below 2 µM	2 µM (≈ 3.41 µg/mL)	15 µM	26 µM		
